How the values were obtained:
Experiment in all cases: relative viability (nuclei count vs DMSO), 5 days (fraction); higher = more cells survive
[1] = compound: CC[C@@H](C)CNCC(=O)N1CCC2=C([C@@H]1COC3=CC=CC(=C3)C)C=CS2 [RU-SKI 43] + CC(=O)c1c(C)c2cnc(Nc3ccc(N4CCNCC4)cn3)nc2n(C2CCCC2)c1=O [Palbociclib] (partner 0.5 µM)
How it was run: (§1)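 Cells from lung cancer lines were seeded into 1536-well plates and, one day later, dosed by pin tool. Treatments were either a single drug or a fixed dose of an anchor drug with five library-drug doses (not always all listed) in √10 steps. After 5 days, nuclei were stained in a one-step fixation (final 0.05% Triton X-100, 1% formaldehyde, 1 ug/ml Hoechst) and counted on 4× images, and relative viability is the treated-to-vehicle nuclei ratio, as the median of duplicate plates.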

[2] = compound: CC[C@@H](C)CNCC(=O)N1CCC2=C([C@@H]1COC3=CC=CC(=C3)C)C=CS2 [RU-SKI 43] + N=C(N)NC(=N)NCCc1ccccc1 [Phenformin] (partner 250 µM)
How it was run: as §1

[3] = compound: CCc1c2c(nc3ccc(OC(=O)N4CCC(N5CCCCC5)CC4)cc13)-c1cc3c(c(=O)n1C2)COC(=O)[C@]3(O)CC [Irinotecan] + C[C@@H](Oc1cc(-c2cnn(C3CCNCC3)c2)cnc1N)c1c(Cl)ccc(F)c1Cl [Crizotinib] (partner 1 µM)
How it was run: as §1

[4] = compound: Cn1cc(-c2cnc3ccc4ccc(CS(=O)(=O)NCc5ccccn5)cc4c(=O)c3c2)cn1 [MK-8033] + CC(C)C[C@H](NC(=O)[C@H](Cc1ccccc1)NC(=O)c1cnccn1)B(O)O [Bortezomib] (partner 0.002 µM)
How it was run: as §1

| Cell Line | relative viability ([1]; first compound 0.1 µM) | relative viability ([1]; first compound 0.3162 µM) | relative viability ([1]; first compound 1 µM) | relative viability ([1]; first compound 3.162 µM) | relative viability ([1]; first compound 10 µM) | relative viability ([2]; first compound 0.1 µM) | relative viability ([2]; first compound 0.3162 µM) | relative viability ([2]; first compound 1 µM) | relative viability ([2]; first compound 3.162 µM) | relative viability ([2]; first compound 10 µM) | relative viability ([3]; first compound 0.6325 µM) | relative viability ([3]; first compound 2 µM) | relative viability ([3]; first compound 6.325 µM) | relative viability ([3]; first compound 20 µM) | relative viability ([4]; first compound 0.02 µM) | relative viability ([4]; first compound 0.06325 µM) | relative viability ([4]; first compound 0.2 µM) | relative viability ([4]; first compound 0.6325 µM) | relative viability ([4]; first compound 2 µM) |
| --- | --- | --- | --- | --- | --- | --- | --- | --- | --- | --- | --- | --- | --- | --- | --- | --- | --- | --- | --- |
| COR-L23 | 0.288 | 0.241 | 0.311 | 0.357 | 0.277 | 0.426 | 0.544 | 0.46 | 0.553 | 0.421 | 0.293 | 0.289 | 0.204 | 0.1 | 0.966 | 0.797 | 0.868 | 0.971 | 1.02 |
| NCI-H2126 | 0.355 | 0.37 | 0.38 | 0.355 | 0.353 | 0.593 | 0.517 | 0.59 | 0.589 | 0.546 | – | 0.58 | 0.361 | 0.354 | 1.17 | 1.11 | 1.01 | 1.06 | 1.07 |
| EPLC-272H | 0.315 | 0.254 | 0.323 | 0.286 | 0.307 | 0.294 | 0.242 | 0.323 | 0.213 | 0.266 | 0.504 | 0.163 | 0.2 | 0.264 | 0.932 | – | 0.826 | 1.09 | 0.91 |
| NCI-H2009 | 0.181 | 0.214 | 0.219 | 0.229 | 0.194 | 0.49 | 0.514 | 0.519 | 0.474 | 0.424 | 0.912 | 0.857 | 0.233 | 0.224 | 1.03 | 1.09 | 0.954 | 0.95 | 0.984 |
| NCI-H2347 | 0.434 | 0.329 | 0.441 | 0.403 | 0.394 | 0.34 | 0.352 | 0.544 | 0.36 | 0.383 | 0.571 | 0.476 | 0.556 | 0.494 | 1.1 | 0.999 | 0.846 | 1.03 | 1.08 |
| LU99A | 0.376 | 0.442 | 0.53 | 0.399 | 0.387 | 0.862 | 0.955 | 0.863 | 0.871 | 0.654 | 0.281 | 0.286 | 0.251 | 0.229 | 1.32 | 1.09 | 1.09 | 1.13 | 1.12 |
| NCI-H1915 | 0.51 | 0.543 | 0.559 | 0.541 | 0.525 | 0.391 | 0.445 | 0.365 | 0.376 | 0.361 | 0.417 | 0.369 | 0.178 | 0.227 | 1 | 0.911 | 0.975 | 1.03 | 0.952 |
| H3255 | 0.313 | 0.316 | 0.331 | 0.32 | 0.301 | 0.395 | 0.348 | 0.26 | 0.316 | 0.322 | 0.741 | 0.539 | 0.383 | 0.251 | 0.846 | 0.585 | 0.822 | 0.825 | 0.705 |
| BEN | 0.489 | 0.468 | 0.523 | 0.46 | 0.451 | 0.26 | 0.283 | 0.238 | 0.262 | 0.267 | 0.928 | 0.52 | 0.252 | 0.391 | 0.937 | 0.751 | 0.578 | 0.631 | 0.807 |
| NCI-H23 | 0.464 | 0.515 | 0.548 | 0.568 | 0.47 | 0.772 | 0.849 | 0.836 | 0.857 | 0.698 | 0.514 | 0.463 | 0.295 | 0.348 | 0.959 | 0.712 | 0.796 | 1.03 | 1.01 |
| NCI-H441 | 0.192 | 0.278 | 0.205 | 0.229 | 0.146 | 0.966 | 1.02 | 0.836 | 0.844 | 0.729 | 0.577 | 0.314 | 0.257 | 0.286 | 0.396 | 0.309 | 0.378 | 0.67 | 0.929 |
| NCI-H1437 | 0.32 | 0.294 | 0.348 | 0.31 | 0.246 | 0.359 | 0.267 | 0.311 | 0.352 | 0.306 | 0.962 | 0.664 | 0.323 | 0.24 | 0.469 | 0.444 | 0.512 | 0.489 | 0.419 |
| HARA | 0.233 | 0.205 | 0.281 | 0.28 | 0.233 | 0.531 | 0.471 | 0.491 | 0.457 | 0.408 | 0.705 | 0.204 | 0.208 | 0.161 | 1.07 | 1.1 | 1.13 | 1.17 | 1.07 |
| LOU-NH91 | 0.523 | 0.515 | 0.552 | 0.496 | 0.518 | 0.705 | 0.673 | 0.733 | 0.715 | 0.666 | 0.718 | 0.658 | 0.368 | 0.36 | 0.455 | 0.559 | 0.511 | 0.554 | 0.495 |
| COR-L 105 | 0.39 | 0.367 | 0.433 | 0.395 | 0.363 | 0.486 | 0.519 | 0.555 | 0.439 | 0.515 | 0.922 | 0.866 | 0.524 | 0.376 | 0.852 | 0.735 | 0.79 | 0.945 | 0.93 |
| NCI-H838 | 0.213 | 0.233 | 0.225 | 0.239 | 0.188 | 0.682 | 0.626 | 0.745 | 0.654 | 0.682 | 0.769 | 0.679 | 0.365 | 0.276 | 0.794 | 0.721 | 0.87 | 0.79 | 0.706 |

From the supplement of paper PMC10307832
